Test system: PC3-M cells
Test: Immunocytochemistry staining of Ki67 in PC3-M cells embedded in 3D Matrigel
Type: cell-based
Settings: 20 μM Cycloheximide in growth media; PC3-M cells in 3D Matrigel (90%), Iuvo Slide 3D ICC platform
Procedure: FIGS. 11 A-C show immunocytochemistry staining of PC3-M Cells embedded in 3D matrix. PC3-M cells were embedded in 3D Matrigel™ (90%) on the Iuvo™ Slide—3D ICC platform (Figure A.). Once the matrix gelled, growth media (with and without 20 μM Cycloheximide) was added to the side compartments of the channel. Following incubation, the cells in the matrix were fixed by flowing reagents through the side channels and allowing sufficient time for diffusion into the gel. A standard immunocytochemistry protocol (4% formaldehyde fixative, 0.5% TX-100 permeabilization buffer, 10% goat serum blocking buffer, primary antibody for Ki67 from LabVision, and AlexaFluor®594 secondary antibody) was utilized. […] FIG. 11 C. is a graph showing the quantitative analysis of the immunocytochemistry staining of PC3-M Cells embedded in a 3D Matrix.
Another embodiment of the invention provides a device that enables the use of assay methods requiring multiple liquid replacement, or wash steps that require the diffusion of large biomolecules, in matrices that are very dense, such as Matrigel™. For example, it is becoming increasingly clear that the lack of a native three dimensional tissue microenvironment seriously limits the utility and accuracy of cellular assays, many of which rely on immunocytochemistry as an endpoint. […]

C[C@@H]1C[C@@H]([C@H](O)CC2CC(=O)NC(=O)C2)C(=O)[C@@H](C)C1 [Cycloheximide]
proliferation marker Ki67 (immunocytochemistry staining): loss of proliferation marker
